Results on 1 compound are retold here after patent US20100099756A1, “USES OF INCENSOLE, INCENSOLE ACETATE AND DERIVATIVES THEREOF” (YISSUM RESEARCH DEVELOPMENT COMPANY OF THE HEBREW …, priority 2006, published 2010).

SMILES strings stand for the structures.

For one assay, the system named is TNF-α and IL-1β mRNA. The assay is described as follows: IL-1β and TNFα mRNA expression after CHI (real-time PCR). In kind it is in vivo, mice. As to conditions: 3 hours after CHI, 50 mg/kg, relative to β-actin, P<0.05. As to the method:
IL-1β and TNFα mRNA levels were quantified 3 hours post-injury by real time polymarerase chain reaction. β-actin was used as endogenous control. *p<0.05 vs. vehicle, as determined by student's t-tests.
The mRNA levels of these cytokines were quantified at 3 hours after CHI using real-time PCR.
For orientation: In qPCR the cycle at which signal appears reflects the starting amount.

For a further assay, the system named is NF-κB (p65 sub-unit). Kind of assay: p65 subunit immunostaining, nuclear accumulation of NF-κB in HeLa cells. It is filed as cell-based. As to conditions: TNFα stimulation, IA 140 μM. As to the method:
(A) IA inhibits IKK phosphorylation. HeLa cells were stimulated with TNFα (20 ng/ml for 20 minutes) in the absence or presence of IA (140 μM) as shown. Whole cell extracts were prepared and analyzed for the phosphoryation of IKKα and IKKβ by Western blotting (WB). (B) HeLa cells were stimulated with TNFα (20 ng/ml for 20 minutes) in the absence or presence of IA (140 μM). Cells were fixed and then stained with rabbit anti-p65 followed by anti-rabbit Rhodamine Red-labeled secondary Ab. and with DAPI for nuclei location (not shown). (B1) HeLa cells, no treatment; (B2) HeLa cells +IA; (B3) HeLa cells +TNF; (B4) HeLa cells +IA+TNF. The cells were examined under an Axioscope Zeiss microscope with a plan-Neofluor * 60 lens. Results of one of three independent experiments are shown.
p65 Subunit Immunostaining. HeLa Cells were preincubated with IA and then stimulated with TNFα as described in the IκBα degradation assay above. Cells were then fixed with formaldehyde 1%, permeabilized with 0.25% Triton X-100, stained with rabbit anti-p65 (Santa Cruz, Calif., USA) and visualized with anti-rabbit Rhodamine Red-labeled secondary antibody (Jackson ImmunoResearch, Baltimore, USA). Cells were also stained with DAPI (blue) for nuclei location (data not shown). The cells were examined under an Axioscope Zeiss microscope with a plan-Neofluor * 60 lens.

For the next assay, the system named is anxiety-like behavior. Kind of assay: Elevated plus maze. It is filed as in vivo, female Sabra mice. To be noted: 50 mg/kg i.p.
Another assay concerns immobility. The assay is described as follows: Porsolt forced swimming test. In kind it is in vivo, female Sabra mice. As to conditions: recorded over 9 minutes, 50 mg/kg i.p.
The subject of another assay is closed head injury. The assay is described as follows: Tissue edema formation (tissue water content) after CHI. It is filed as in vivo, mice. To be noted: left (ipsilateral) hemisphere, 24 h after injury; P=0.15 vs vehicle.
For the next assay, the system named is TRPV4. Kind of assay: Whole-cell voltage-clamp, TRPV4(+) cells. It is filed as cell-based. As to conditions: IA 200 μM. As for the experimental part:
TRPV3(+) response to IA is shown for reference. *, p<0.001. Error bars represent SEM, n=4-5.
Electrophysiological recording. Currents were recorded using whole-cell voltage-clamp. Pipettes were pulled from microcapillary glass (A-M Systems). A coverslip containing cells was transferred to a 300 μL chamber that was constantly perfused (1-2 mL/min) with external solution. Voltage protocols were generated and data were digitized and recorded using Pulse (HEKA Elektronik) software in conjunction with an Axopatch 200A amplifier (Axon Instruments), and the data analyzed using an in-house Visual Basic (Microsoft) analysis program.
The pipette solution contained (in mM): 121.5 Kgluconate, 10 HEPES, 17 KCl, 9 NaCl, 1 MgCl2, 0.2 EGTA, 2 MgATP, and 0.5 NaATP, pH 7.2. The external solution contained (in mM): 120 NaCl, 5 KCl, 1 MgCl2, 2 CaCl2, 10 Glucose and 20 HEPES, pH 7.4 with NaOH. The measured charge (pC) was defined as the charge elicited between -85 and -45 mV by a ramping voltage stimulus (−85 mV to +35 mV, 0.54 mV/msec; holding potential -55 mV). Currents were sampled at 5 kHz. Experimental and control cells were alternated whenever possible. Control values were obtained from adjacent cells with no detectable YFP fluorescence, presumed to be non-TRPV3-expressing.

A further assay has as its target T1, rat TRPV4 (Rattus norvegicus, UniProt Q9ERZ8).
T1 construct: expressed in transfected cells; host or cells: HEK293 cell line
Kind of assay: Calcium imaging of TRPV4 transfected HEK293 cells. In kind it is cell-based. To be noted: IA 100 μM, compared to vehicle. As to the method: All error bars indicate SEM; p values in all subfigures but c represent analysis with one-way ANOVA Bonferroni's post hoc.
TRPV3-YFP [O'dell, D. K., Rimmerman, N., Pickens, S. R. & Walker J. M. Fatty acyl amides of endogenous tetrahydroisoquinolines are active at the recombinant human TRPV1 receptor. Bioorg. Med. Chem. 15, 6164-6169 (2007)], TRPV4 and mock-transfected cell lines were cultured in DMEM 1× with L-glutamine (Mediatech, Inc. Herndon, Va.), containing 1% penicillin-streptomycin (Invitrogen, Carlsbad, Calif.) and 10% foetal bovine serum.
Calcium imaging of HEK 293 cells. TRPV1, TRPV3, and TRPV4 expressing HEK293 cells were plated 24-48 h before imaging in 96 well plates, loaded with 3 μM Fura-2 AM and imaged as previously described [O'dell, D. K., Rimmerman, N., Pickens, S. R. & Walker J. M. Fatty acyl amides of endogenous tetrahydroisoquinolines are active at the recombinant human TRPV1 receptor. Bioorg. Med. Chem. 15, 6164-6169 (2007)].

The test system of the next assay is IκBα degradation. Kind of assay: IκBα degradation in TNFα-stimulated HeLa cells (Western blot). To be noted: HeLa cells pre-incubated 2 hrs, then TNFα 20 ng/ml for 20 minutes. It is filed as cell-based. As for the experimental part: HeLa cells were pre-incubated with IA (FIG. 1A) or IN (FIG. 1B) at the indicated concentrations for 2 hrs prior to 20 minutes exposure to TNFα (20 ng/ml). At least three more experiments were repeated with highest indicated dose, resulting similarly.
IκBα Degradation. HeLa cells were pre-incubated with IA (50 μg/ml, dissolved in ethanol) for 2 hrs, and then stimulated for 20 minutes with TNFα (20 ng/ml, Emeryville, Calif., USA). After removing the slides from plates for immonostaining (see below), proteins were extracted from remaining cells in the plates. Proteins were extracted from cells in NP-40 lysis buffer. Total protein concentration was determined using the Bradford method. Lysates were then analyzed either by Western blotting (WB).
Western Blot (WB). Following separation by SDS-PAGE, proteins were blotted to a polyvinylidene difluoride (PVDF) membrane (Millipore). The membrane was blocked in 5% (w/v) milk powder and then incubated in TBST containing the primary antibody and 2% (w/v) milk powder. All phospho-specific antibodies were purchased from Cell signaling Inc. αIκBa, αp65 and αCOX2 antibodies from Santa Cruz Inc. (California, USA). After binding of an appropriate secondary antibody coupled to horseradish peroxidase, proteins were visualized by enhanced chemiluminiscence according to the instructions of the manufacturer (Amersham Lifescience).
On the technique in general: In western blotting, separated proteins are transferred to a membrane and probed.

T1 sequence (Q9ERZ8 whole entry): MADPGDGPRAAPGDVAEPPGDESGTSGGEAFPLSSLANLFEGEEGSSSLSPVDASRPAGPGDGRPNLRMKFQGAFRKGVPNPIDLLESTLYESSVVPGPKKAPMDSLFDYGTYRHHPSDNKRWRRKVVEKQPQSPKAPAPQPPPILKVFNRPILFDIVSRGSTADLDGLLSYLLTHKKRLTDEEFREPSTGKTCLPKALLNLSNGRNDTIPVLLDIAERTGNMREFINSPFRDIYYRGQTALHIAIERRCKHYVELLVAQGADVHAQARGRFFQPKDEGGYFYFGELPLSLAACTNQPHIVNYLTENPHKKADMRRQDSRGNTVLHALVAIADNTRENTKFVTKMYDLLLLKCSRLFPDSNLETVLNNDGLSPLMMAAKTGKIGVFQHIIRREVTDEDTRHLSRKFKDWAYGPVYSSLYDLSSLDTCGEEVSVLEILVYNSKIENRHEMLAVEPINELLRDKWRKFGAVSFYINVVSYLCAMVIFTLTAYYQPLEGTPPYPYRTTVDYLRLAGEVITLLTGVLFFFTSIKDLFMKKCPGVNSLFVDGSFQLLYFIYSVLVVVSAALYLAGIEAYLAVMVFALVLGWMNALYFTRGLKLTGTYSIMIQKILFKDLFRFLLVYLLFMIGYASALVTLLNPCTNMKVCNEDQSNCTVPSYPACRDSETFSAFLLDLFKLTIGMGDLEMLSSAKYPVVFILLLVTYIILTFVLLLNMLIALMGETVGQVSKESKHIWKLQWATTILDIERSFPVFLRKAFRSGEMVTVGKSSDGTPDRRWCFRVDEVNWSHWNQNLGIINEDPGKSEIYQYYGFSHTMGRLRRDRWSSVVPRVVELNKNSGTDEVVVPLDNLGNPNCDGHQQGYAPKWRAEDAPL

For the compound `CC(=O)OC1CC/C(C)=C/CC/C(C)=C/CC2(C(C)C)CCC1(C)O2` (stereo not drawn) [IA, incensole acetate], in the assay on TNF-α and IL-1β mRNA, the “IL-1β mRNA expression” value is recorded as “significantly inhibited mRNA expression” and the “TNF-α mRNA expression” value is “significantly inhibited mRNA expression”. The “nuclear accumulation of NF-κB (p65)” value in the assay with NF-κB (p65 sub-unit) is “inhibited the nuclear accumulation of NF-κB”. For the same compound, in the assay on anxiety-like behavior, the “time in open arms of the elevated plus maze” value was “potent anxiolytic-like effect”. For the same compound, the “immobility in the Porsolt forced-swim test” value in the assay with immobility is reported as “significantly reduced the immobility”. Further, the tissue water content in the assay with closed head injury is 81.47±0.35%. Besides, the “current activation in TRPV4(+) cells” value in the assay with TRPV4 is given as “does not activate currents”. Moreover, on rat TRPV4, the “calcium influx in TRPV4 transfected HEK293 cells” value is “very modest calcium influx”. For the same compound, the IκBα degradation result in the assay on IκBα degradation is “inhibited IκBα degradation in a dose dependent manner”.
